Measurements published in patent publication US4032534A, “Certain 2-(2-thioethyl)thiazolidine-4-carboxylic acids” (Ferlus-Chimie S.A., priority 1973, dated 1977).

Legend:
[1] = system: mouse; details: for DL 50: per os, species not given
[2] = system: femoral arterial pressure and cardiac contractile force; assay: Cardiovascular action in a dog anaesthetised with chloralose; assay type: in vivo
Procedure: This action was studied in a dog, anaesthetised with chloralose, its reflexogenic, cardioaortic and sinocarotidian zones being intact (normotense dog), or denervated (hypertense dog). The product to be tested was injected in the saphena vein, and the femoral arterial pressure and cardiac contractile force were recorded.

[3] = Mucolytic action: measurement of the fluidising action of the bronchial secretion (microviscosimeter of the BROOKFIELD type); details: for Percentage diminution of viscosity: 37° C.
Procedure: Mucolytic action: measurement of the fluidising action of the bronchial secretion.
The study of the viscosity of an expectoration is effected in vitro. In order to measure viscosity, a microviscosimeter of the BROOKFIELD type is used. With the aid of this apparatus, the resistant couple exerted on a rotor is determined. This rotor, submerged in the liquid whose viscosity is to be measured, rotates at a known constant speed.
1.5 ml of secretion, taken to ambient temperature, was poured into a container of the viscosimeter. After 4 minutes, the temperature of the expectoration was balanced at 37° C., then the motor of the apparatus was started for 5 minutes, after which measurement was effected.
Three rotor speeds were used:
1.5 r.p.m.; 3 r.p.m., and 6 r.p.m.
The three speeds were used for each test. Firstly, the viscosity of the pure expectoration was measured, then that of the expectoration to which had been added one drop of distilled water as a solvent, and whose retained values were later used as witness values, or placebo values.
Thereafter, 1.5 ml of secretion had added to it a drop of the product at the first aqueous concentration envisaged.
The viscosity was measured at the three rotary speeds of the rotor. The same operation was repeated at the following concentrations; 1 mg/ml; 2 mg/ml and 5 mg/ml.
The reference substance was mercapto-ethane sulfonate of sodium or MISTABRON (M.E.S. Na). This substance had been studied under the same experimental conditions at a concentration of 200 mg/ml.

[4] = system: phenylbenzoquinone-induced stretching or twisting movements (writhing syndrome); assay: Siegmund test (analgesic action; phenylbenzoquinone writhing syndrome); assay type: in vivo; details: mouse, 300 mg/kg PO, 30 minutes before phenylbenzoquinone, protected = less than five stretching movements in 5 minutes
Procedure: Reference: […], E. A.: CADMUS, R. A.: GOLU: "A Method for evaluating both non-narcotic and narcotic Analgesics." Pro. Soc. Exp. Biol., 1957, b, 95, 729-731.
Principle: Injection of an irritant, phenylbenzoquinone (in 0.02% solution), into the peritoneum of a mouse, determination of the stretching or twisting movements (writhing syndrome), whose frequency is diminished by the preventive administration of analgesic.
The substances were given orally 30 minutes before injection of the irritant. The number of stretching movements between the 5th and 10th minute after injection of phenylbenzoquinone were counted. The percentage of animals protected was calculated. A mouse was considered protected if it executed less than five stretching movements in 5 minutes.

[5] = in vivo; details: mouse, po

In the case of O=C(O)C1CSC(CCSCc2nc3ccccc3[nH]2)N1 (stereo not shown) [Compound No. 10, 2-[2-(benzimidazolylmethyl)-2-thioethyl]-thiazolidine 4-carboxylic acid], the “DL 50” value [1] is reported as over 1200 mg/kg and the “cardiostimulant properties (in words)” value ([2]; saphena vein injection, 20 mg/kg) is reported as “clear cardiostimulant properties”.

In the case of CCOC(=O)CSCCC1NC(C(=O)O)CS1 (stereo not shown) [Compound No. 8, 2-[(Ethoxycarbonylmethylthio)-ethyl] thiazolidine 4-carboxylate of diisopropylamine], the “Percentage diminution of viscosity” value ([3]; 1 mg/ml, rotor speed V = 1.5 r.p.m.) is reported as 58%, the “Percentage diminution of viscosity” value ([3]; 1 mg/ml, rotor speed V = 3 r.p.m.) is reported as 55% and the “Percentage diminution of viscosity” value ([3]; 1 mg/ml, rotor speed V = 6 r.p.m.) is reported as 46%. For the same molecule, the “Percentage diminution of viscosity” value ([3]; 2 mg/ml, rotor speed V = 1.5 r.p.m.) was 60%, the “Percentage diminution of viscosity” value ([3]; 2 mg/ml, rotor speed V = 3 r.p.m.) was 57% and the “Percentage diminution of viscosity” value ([3]; 2 mg/ml, rotor speed V = 6 r.p.m.) was 47.5%. The “Percentage diminution of viscosity” value ([3]; 5 mg/ml, rotor speed V = 1.5 r.p.m.) was 71%, the “Percentage diminution of viscosity” value ([3]; 5 mg/ml, rotor speed V = 3 r.p.m.) was 62% and the “Percentage diminution of viscosity” value ([3]; 5 mg/ml, rotor speed V = 6 r.p.m.) was 58%. The “mucolytic action versus reference M.E.S. Na (in words)” value ([3]; in accordance with the doses used (1, 2, 5 mg/ml vs 200 mg/ml M.E.S. Na)) was “comparable with and even superior to the reference substance”.

With O=C(O)CSCCC1NC(C(=O)O)CS1 (stereo not shown) [Compound No. 5, 4-carboxy thiazolidinyl 2-ethyl mercapto acetate of di(diisopropylamine)] the “Acute Toxicity mouse PO” value [1] was over 1200 mg/kg, the “DL 50” value [1] was over 1200 mg/kg and the “antihypertensive and hypotensive action (in words)” value ([2]; intravenous, 10 mg/kg) was “antihypertensive and hypotensive”. The “% of animals protected” value ([4]; 300 mg/kg) was 20%.

For O=C(O)CSCCC1NC(C(=O)O)CS1 (stereo not shown) [compound 6, 4-carboxy thiazolidinyl 2-ethyl mercapto arginine acetate], the “Acute Toxicity mouse PO” value [1] was over 1200 mg/kg and the “% of animals protected” value ([4]; acetate, 300 mg/kg) was 20%.

For O=S(=O)(O)CCS [M.E.S. Na, mercapto-ethane sulfonate of sodium, reference compound], the “Percentage diminution of viscosity” value ([3]; 200 mg/ml, rotor speed V = 1.5 r.p.m.) was 66%, the “Percentage diminution of viscosity” value ([3]; 200 mg/ml, rotor speed V = 3 r.p.m.) was 65% and the “Percentage diminution of viscosity” value ([3]; 200 mg/ml, rotor speed V = 6 r.p.m.) was 55%.

For O=C(O)C1CSC(CCSc2nc3ncccc3o2)N1 (stereo not shown) [compound 11, 2-(2-pyridoxazolyl-2-thioethyl)thiazolidine 4-carboxylic acid], the LD50 [5] was over 1200 mg/kg and the “% of animals protected” value [4] was 20%.

In the case of O=C(O)CSCCC1NC(C(=O)O)CS1 (stereo not shown) [Compound No. 4, 4-carboxy-thiazolidinyl-2-ethyl mercapto acetic acid], the LD50 [5] is reported as over 1200 mg/kg and the “% of animals protected” value ([4]; 300 mg/kg) is reported as 40%.
